1 molecule from US20110262567A1, “COMPOSITION FOR TREATING GOUT, CONTAINING ANGELICA GIGAS EXTRACT HAVING A XANTHINE OXIDASE-INHIBITING EFFECT AND AN INFLAMMATION-INDUCING ENZYME-INHIBITING EFFECT” (KOREA BIO HEALTH CO., LTD., priority 2008, published 2011) can be followed below.

≈ marks a conversion by molar mass, not a printed value.

For one assay, the target named is xanthine oxidase (Homo sapiens, UniProt P47989). The assay can be described thus: Test on xanthine oxidase inhibition. It counts as biochemical.
Sequence of xanthine oxidase (P47989 whole entry, species assumed): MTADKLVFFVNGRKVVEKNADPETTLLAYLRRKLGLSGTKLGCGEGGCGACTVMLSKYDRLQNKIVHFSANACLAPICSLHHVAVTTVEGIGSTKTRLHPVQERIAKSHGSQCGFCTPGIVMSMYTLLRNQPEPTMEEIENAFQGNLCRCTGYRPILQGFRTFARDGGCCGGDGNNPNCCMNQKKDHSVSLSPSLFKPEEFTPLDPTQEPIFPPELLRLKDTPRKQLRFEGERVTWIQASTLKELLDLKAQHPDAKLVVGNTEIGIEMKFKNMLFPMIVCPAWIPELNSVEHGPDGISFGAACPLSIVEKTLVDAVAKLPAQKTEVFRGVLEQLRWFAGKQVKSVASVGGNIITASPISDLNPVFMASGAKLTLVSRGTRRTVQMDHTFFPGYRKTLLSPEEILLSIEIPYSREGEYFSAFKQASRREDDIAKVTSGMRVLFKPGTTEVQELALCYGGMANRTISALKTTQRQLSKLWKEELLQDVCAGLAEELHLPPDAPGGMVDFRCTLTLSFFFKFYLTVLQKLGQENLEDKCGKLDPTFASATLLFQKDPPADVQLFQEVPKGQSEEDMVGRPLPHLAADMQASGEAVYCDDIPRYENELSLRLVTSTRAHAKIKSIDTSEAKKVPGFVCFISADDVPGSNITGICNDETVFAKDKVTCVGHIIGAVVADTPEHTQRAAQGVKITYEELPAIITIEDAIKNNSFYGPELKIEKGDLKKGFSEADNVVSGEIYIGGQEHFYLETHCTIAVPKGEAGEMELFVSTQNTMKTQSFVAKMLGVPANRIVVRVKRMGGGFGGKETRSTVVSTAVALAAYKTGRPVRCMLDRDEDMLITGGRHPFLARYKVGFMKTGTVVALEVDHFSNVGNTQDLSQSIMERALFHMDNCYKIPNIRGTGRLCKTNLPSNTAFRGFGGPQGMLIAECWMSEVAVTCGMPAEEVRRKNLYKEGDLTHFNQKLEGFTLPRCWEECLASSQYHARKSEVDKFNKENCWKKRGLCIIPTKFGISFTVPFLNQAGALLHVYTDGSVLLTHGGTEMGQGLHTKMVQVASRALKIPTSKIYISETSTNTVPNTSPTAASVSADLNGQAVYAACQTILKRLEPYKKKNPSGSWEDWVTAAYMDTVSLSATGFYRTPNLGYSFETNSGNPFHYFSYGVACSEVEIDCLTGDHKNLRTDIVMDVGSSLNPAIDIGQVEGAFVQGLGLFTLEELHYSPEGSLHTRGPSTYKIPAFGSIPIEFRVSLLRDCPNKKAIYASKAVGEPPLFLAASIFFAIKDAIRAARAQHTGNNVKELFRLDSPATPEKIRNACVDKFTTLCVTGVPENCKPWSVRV
Another assay concerns Cox-2. Briefly: Inflammation inhibition in hepatocytes of gout-induced animal model (Cox-2 western blot of liver). It counts as in vivo. As to conditions: rat, 50 mg/kg oral for 3 days after potassium oxonate; compared to hyperuricemia control group (model control). Here is the method: In order to confirm the inhibitory effect of the Angelica gigas Nakai extract of the present invention on the inflammation-inducing enzyme Cox-2, the uricase inhibitor, potassium oxonate was administered to induce hyperuricemia.
As the experimental animal, 9-week old male sprague-dawley rats (250-280 g, Samtako, Inc.) were acclimated in a SPF chamber where the humidity and temperature were maintained at 50±5% and 24˜26° C. and feed and water were supplied ad libitum for 1 week, and then used for the experiment.
In the present experiment, the uricase inhibitor, potassium oxonate (150 mg/kg) was intraperitoneally administered one day before sample treatment, so as to induce hyperuricemia. The contents of uric acid before and after administration of potassium oxonate were measured and compared to each other, in order to confirm the hyperuricemia induction by administration of potassium oxonate.
Potassium oxonate was suspended in 0.5% sodium carboxymethylcellulose (CMC-Na, 0.5% CMC with 0.1 M sodium acetate (pH5)), and used. […]
After oral administration for 3 days, the experimental animals were fasted overnight, and then anesthetized with dry ice. […] 100 mg was dissected from the whole liver, and proteins were separated using a cell lysis buffer, and the protein concentration was measured by BCA protein assay. […]
(In general: In western blotting, separated proteins are transferred to a membrane and probed.)

Method for xanthine oxidase: In this experiment, xanthine was used as a substrate and xanthine oxidase was used as an enzyme to perform an enzyme-substrate reaction.
250 μl of 50 mM potassium phosphate buffer (pH 7.5), 385 μl of Angelica gigas Nakai extract solution (prepared by dilution with 50 mM potassium phosphate buffer (pH 7.5) until the final concentrations of decursin and decursinol angelate become 1, 5, 10, 17.5, 20, 50 μg/ml), and 330 μl of xanthine solution were mixed with each other to prepare a reaction solution.
35 μl of xanthine oxidase solution (final concentration of 0.4 U/ml) was added to the reaction solution, and reacted in a 37° C. incubator for 15 min. Then, absorbance (Ab) was measured at 295 nm.
Each reaction solution was also prepared using each Angelica gigas Nakai extract (each final concentration of decursin and decursinol angelate was 1, 5, 10, 17.5, 20, or 50 μg/ml) without addition of the xanthine oxidase solution. Further, in the absence of the Angelica gigas Nakai extract, each reaction solution was prepared with or without the xanthine oxidase solution. […]
A: a change in absorbance in the absence of composition (Absorbance with enzyme−Absorbance without enzyme)
B: a change in absorbance in the presence of composition (Absorbance with enzyme−Absorbance without enzyme)

The term IC90 denotes the concentration at which the effect reaches the 90% level. A high value points to a need for much substance. `Oc1ncnc2[nH]ncc12` [allopurinol] displayed an IC90 against xanthine oxidase of 38 mg/L (≈ 279 µM). The “Cox-2 expression in the hepatic tissue” value with Cox-2 is reported as “adversely increased”.
